{"source": "patent US20250295156A1", "about": "“LOADED GRANULES, THEIR PROCESS OF PRODUCTION AND THEIR USES” (Evie SA, priority 2019, published 2025)", "origin": "cited, not measured here", "key": {"[1]": {"biological_target": "cannabinoid CB2 receptor (Homo sapiens, UniProt P34972)", "sequence (P34972 whole entry)": "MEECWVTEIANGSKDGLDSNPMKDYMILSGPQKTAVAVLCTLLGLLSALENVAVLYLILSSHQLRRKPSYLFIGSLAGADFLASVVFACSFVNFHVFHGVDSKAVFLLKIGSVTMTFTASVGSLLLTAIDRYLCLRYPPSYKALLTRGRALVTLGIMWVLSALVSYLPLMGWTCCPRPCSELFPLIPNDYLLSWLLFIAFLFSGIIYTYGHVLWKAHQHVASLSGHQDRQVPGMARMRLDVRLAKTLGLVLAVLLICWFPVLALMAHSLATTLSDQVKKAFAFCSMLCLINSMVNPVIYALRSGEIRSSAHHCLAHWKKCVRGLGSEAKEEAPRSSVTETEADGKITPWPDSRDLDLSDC"}, "[2]": {"conditions": "humans, orally; no reported psychomotor slowing, negative mood effects, or vital sign abnormalities (Bergamaschi et al., 2011)"}}}
{"smiles": "C=C(C)[C@@H]1CCC(C)=C[C@H]1c1c(O)cc(CCCCC)cc1O", "note": "[Cannabidiol]", "values": [{"measurement": "affinity for CB2 receptor", "setting": "[1]", "result": "very low affinity"}, {"measurement": "well tolerated dose", "setting": "[2]", "result": "up to 1500 mg/day"}]}
